Measured values reported in ChEMBL document CHEMBL4765487, “From a Designer Drug to the Discovery of Selective Cannabinoid Type 2 Receptor Agonists with Favorable Pharmacokinetic Profiles for the Treatment of Systemic Sclerosis” (J Med Chem, 2021).

Key:
[1] = target: T1, Cannabinoid receptor 1 (Homo sapiens, UniProt P21554); experiment: Agonist activity at human CB1 receptor expressing CHO cells co-expressing Galpha16 by calcium mobilization assay; assay type: functional, cell-based
[2] = target: T1, Cannabinoid receptor 1; experiment: Agonist activity at human CB1 receptor expressing CHO cells co-expressing Galpha16 by calcium mobilization assay relative to CP55940; assay type: functional, cell-based
[3] = target: T2, Cannabinoid receptor 2 (Homo sapiens, UniProt P34972); experiment: Agonist activity at human CB2 receptor expressing CHO cells co-expressing Galpha16 by calcium mobilization assay; assay type: functional, cell-based
[4] = target: T2, Cannabinoid receptor 2; experiment: Agonist activity at human CB2 receptor expressing CHO cells co-expressing Galpha16 by calcium mobilization assay relative to CP55940; assay type: functional, cell-based
[5] = target: T2, Cannabinoid receptor 2; experiment: Antagonist activity at human CB2 receptor expressing CHO cells co-expressing Galpha16 assessed as inhibition of CP55940-induced calcium mobilization pre-incubated for 15 mins before CP55940 addition; assay type: functional, cell-based; settings: cho
[6] = in vitro; settings: human, liver microsomes
[7] = in vitro; settings: human, liver
[8] = in vitro; settings: human, liver microsomes; remark: listed apart in the source
Description: Half life in human liver microsomes at 1 uM in presence of NADPH by LC-MS/MS analysis

[9] = in vitro; settings: human, liver microsomes; remark: listed apart in the source
Description: Stability in human liver microsomes assessed as parent compound remaining at 1 uM incubated for 60 mins in presence of NADPH by LC-MS/MS analysis

T2 sequence (P34972 whole entry): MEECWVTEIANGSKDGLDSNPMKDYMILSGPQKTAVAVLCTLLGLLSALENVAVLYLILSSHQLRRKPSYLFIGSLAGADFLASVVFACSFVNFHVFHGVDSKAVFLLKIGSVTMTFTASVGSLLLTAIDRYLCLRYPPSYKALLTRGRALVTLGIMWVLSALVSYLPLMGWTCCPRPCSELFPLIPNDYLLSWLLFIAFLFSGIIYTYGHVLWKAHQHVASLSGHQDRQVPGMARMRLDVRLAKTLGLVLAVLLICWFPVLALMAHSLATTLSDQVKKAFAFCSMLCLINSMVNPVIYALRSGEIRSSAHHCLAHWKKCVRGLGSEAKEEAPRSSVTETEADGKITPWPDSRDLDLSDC
T1 sequence (P21554 whole entry): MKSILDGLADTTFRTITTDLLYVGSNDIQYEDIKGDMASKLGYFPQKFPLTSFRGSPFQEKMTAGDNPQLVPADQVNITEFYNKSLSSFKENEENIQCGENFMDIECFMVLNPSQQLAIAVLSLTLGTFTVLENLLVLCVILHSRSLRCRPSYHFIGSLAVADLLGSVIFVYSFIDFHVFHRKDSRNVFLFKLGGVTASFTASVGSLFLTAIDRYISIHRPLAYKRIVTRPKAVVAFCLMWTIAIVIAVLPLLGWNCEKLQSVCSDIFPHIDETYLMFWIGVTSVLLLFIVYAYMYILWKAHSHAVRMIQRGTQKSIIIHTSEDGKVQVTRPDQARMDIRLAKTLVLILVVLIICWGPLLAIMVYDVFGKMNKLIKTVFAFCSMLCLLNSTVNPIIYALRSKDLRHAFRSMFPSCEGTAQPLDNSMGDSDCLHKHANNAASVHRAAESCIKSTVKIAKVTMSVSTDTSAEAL

CCCCCn1nc(C(=O)N[C@@H](C(=O)OC)C(C)(C)C)cc1C(C)(C)C
EC50 [1]: 4.3 nM
Emax ([2]; filed as agonist): 100%
EC50 [3]: 26.1 nM
Emax ([4]; filed as agonist): 100%

CCCCCn1nc(C(C)(C)C)cc1C(=O)Nc1ccc(Cl)cc1
EC50 [1]: 100000 nM
EC50 [3]: 100000 nM

CC(C)(CO)NC(=O)c1cc(C(C)(C)C)n(CCCF)n1
EC50 [1]: 100000 nM
EC50 [3]: 184 nM
Emax ([4]; filed as agonist): 100%

CC(C)(CO)NC(=O)c1cc(C(C)(C)C)n(-c2ccc(F)cc2)n1
EC50 [1]: 100000 nM
EC50 [3]: 685 nM
Emax ([4]; filed as agonist): 82%

CCCCCCn1nc(C(=O)NC(C)(C)CO)cc1C(C)(C)C
EC50 [1]: 47 nM
Emax ([2]; filed as agonist): 100%
EC50 [3]: 13.4 nM
Emax ([4]; filed as agonist): 100%

CCCCCn1nc(C(=O)N[C@H](C(=O)OC)C(C)C)cc1C(C)(C)C
EC50 [1]: 26.6 nM
Emax ([2]; filed as agonist): 70%
EC50 [3]: 7.2 nM
Emax ([4]; filed as agonist): 100%

CCCCn1nc(C(=O)NC(C)(C)CO)cc1C(C)(C)C
EC50 [1]: 101 nM
Emax ([2]; filed as agonist): 90%
EC50 [3]: 10.1 nM
Emax ([4]; filed as agonist): 100%

CC(C)(CO)NC(=O)c1cc(C(C)(C)C)n(CC2CC2)n1
EC50 [1]: 4900 nM
Emax [2]: 20%
EC50 [3]: 103 nM
Emax ([4]; filed as agonist): 100%

CCCCCn1nc(C(C)(C)C)cc1C(=O)NCc1ccc(Cl)cc1
EC50 [1]: 100000 nM
EC50 [3]: 100000 nM

CCCCCn1nc(C(=O)NC(C)(C)CO)c(Cl)c1C(C)(C)C
IC50 [5]: Not Active
EC50 [1]: 33.9 nM
Emax ([2]; filed as agonist): 50%
EC50 [3]: 3.4 nM
Emax ([4]; filed as agonist): 100%

CCCCCn1nc(C(=O)NC(C)(C)CO)c([N+](=O)[O-])c1C(C)(C)C
IC50 [5]: Not Active
EC50 [1]: 129 nM
Emax ([2]; filed as agonist): 100%
EC50 [3]: 13.3 nM
Emax ([4]; filed as agonist): 70%

CC(C)(CO)NC(=O)c1cc(C(C)(C)C)n(-c2ncc(C(F)(F)F)cc2Cl)n1
EC50 [1]: 100000 nM
EC50 [3]: 100000 nM

CCCCCn1nc(C(=O)NCc2ccc(Cl)cc2)cc1C(C)(C)C
EC50 [1]: 100000 nM
EC50 [3]: 100000 nM

CCCCCn1nc(C(=O)NC(C)(C)CO)cc1C1CC1
IC50 [5]: Not Active
EC50 [1]: 100000 nM
EC50 [3]: 100000 nM

CC(C)(CO)NC(=O)c1cc(C(C)(C)C)n(-c2ccccn2)n1
EC50 [1]: 100000 nM
EC50 [3]: 3890 nM
Emax ([4]; filed as agonist): 80%

O=C(O)Cc1ccccc1Nc1c(Cl)cccc1Cl [DICLOFENAC]
microsomal CLint at 1 µM [6]: 129 µL/min/mg
CLint scaled at 1 µM [7]: 116 mL/min/kg

C[C@]12CC[C@H]3[C@@H](CCC4=CC(=O)CC[C@@]43C)[C@@H]1CC[C@@H]2O [TESTOSTERONE]
half-life at 1 µM [8]: 18.8 min
microsomal CLint at 1 µM [6]: 73.6 µL/min/mg
CLint scaled at 1 µM [7]: 66.3 mL/min/kg
remaining at 1 h, 1 µM [9]: 10.7%

CC(C)(CO)NC(=O)c1cc(C(C)(C)C)n(-c2ccc(OC(F)(F)F)cc2)n1
EC50 [1]: 100000 nM
EC50 [3]: 100000 nM

CCCCCn1nc(C(=O)NC(C)(C)CO)cc1C(C)(C)C
EC50 [1]: 17.4 nM
Emax ([2]; filed as agonist): 100%
EC50 [3]: 2.9 nM
Emax ([4]; filed as agonist): 100%
half-life at 1 µM [8]: 22.2 min
microsomal CLint at 1 µM [6]: 62.4 µL/min/mg
CLint scaled at 1 µM [7]: 56.1 mL/min/kg
remaining at 1 h, 1 µM [9]: 14.9%

CCCCCn1nc(C(C)(C)C)cc1C(=O)NC12CC3CC(CC(O)(C3)C1)C2
EC50 [1]: 100000 nM
EC50 [3]: 100000 nM

CCCCCn1nc(C(=O)NC(C)(C)CO)c(Br)c1C(C)(C)C
IC50 [5]: Not Active
EC50 [1]: 27 nM
Emax ([2]; filed as agonist): 50%
EC50 [3]: 2 nM
Emax ([4]; filed as agonist): 100%

CCCCCn1nc(C(=O)NC2CCCCC2)cc1C(C)(C)C
EC50 [1]: 104 nM
Emax ([2]; filed as agonist): 50%
EC50 [3]: 46 nM
Emax ([4]; filed as agonist): 80%

CCCCCn1nc(C(=O)Nc2ccncc2)cc1C(C)(C)C
EC50 [1]: 220 nM
Emax [2]: 30%
EC50 [3]: 118 nM
Emax ([4]; filed as agonist): 60%

CC(C)(CO)NC(=O)c1cc(C(C)(C)C)n(CCCCCF)n1
EC50 [1]: 43 nM
Emax ([2]; filed as agonist): 90%
EC50 [3]: 36.4 nM
Emax ([4]; filed as agonist): 70%

COCCn1nc(C(=O)NC(C)(C)CO)cc1C(C)(C)C
EC50 [1]: 100000 nM
EC50 [3]: 100000 nM

CCCCCn1nc(C(C)(C)C)cc1C(=O)NC(C)(C)CO
EC50 [1]: 100000 nM
EC50 [3]: 319 nM
Emax ([4]; filed as agonist): 80%

CCCCCn1nc(C(=O)Nc2ccc(Cl)cc2)cc1C(C)(C)C
EC50 [1]: 100000 nM
EC50 [3]: 2350 nM
Emax ([4]; filed as agonist): 80%

CCCCCn1nc(C(=O)NC(C)(C)CO)cc1C(C)C
IC50 [5]: Not Active
EC50 [1]: 171 nM
Emax ([2]; filed as agonist): 90%
EC50 [3]: 38.5 nM
Emax ([4]; filed as agonist): 70%

CC(C)(CO)NC(=O)c1cc(C(C)(C)C)n(CCCCF)n1
EC50 [1]: 2850 nM
Emax ([2]; filed as agonist): 100%
EC50 [3]: 65.9 nM
Emax ([4]; filed as agonist): 100%

CCCCCn1nc(C(=O)NC(C)(C)CO)cc1C(F)(F)F
IC50 [5]: Not Active
EC50 [1]: 187 nM
Emax ([2]; filed as agonist): 80%
EC50 [3]: 53.8 nM
Emax ([4]; filed as agonist): 80%

CC(C)(CO)NC(=O)c1cc(C(C)(C)C)n(-c2ccc(Cl)cc2)n1
EC50 [1]: 100000 nM
EC50 [3]: 204 nM
Emax ([4]; filed as agonist): 100%

COc1ccc(-n2nc(C(=O)NC(C)(C)CO)cc2C(C)(C)C)cc1
EC50 [1]: 100000 nM
EC50 [3]: 100000 nM

CC(C)(CO)NC(=O)c1cc(C(C)(C)C)n(-c2ccc(F)cc2F)n1
EC50 [1]: 100000 nM
EC50 [3]: 1730 nM
Emax ([4]; filed as agonist): 80%

CCCCCn1nc(C(=O)NC23CC4CC(CC(O)(C4)C2)C3)cc1C(C)(C)C
EC50 [1]: 4 nM
Emax ([2]; filed as agonist): 100%
EC50 [3]: 100000 nM

CC(C)(CO)NC(=O)c1cc(C(C)(C)C)n(-c2ccccc2)n1
EC50 [1]: 100000 nM
EC50 [3]: 100000 nM

CC(C)(CO)NC(=O)c1cc(C(C)(C)C)n(-c2ccc(F)cn2)n1
EC50 [1]: 100000 nM
EC50 [3]: 135 nM
Emax ([4]; filed as agonist): 100%

CCCCCn1nc(C(=O)NC(C)(C)CO)cc1CC(C)(C)C
IC50 [5]: Not Active
EC50 [1]: 27 nM
Emax ([2]; filed as agonist): 90%
EC50 [3]: 12 nM
Emax ([4]; filed as agonist): 50%

CCCCCn1nc(C(=O)NC(C)(C)C)cc1C(C)(C)C
EC50 [1]: 7.2 nM
Emax ([2]; filed as agonist): 100%
EC50 [3]: 12 nM
Emax ([4]; filed as agonist): 100%

Cc1ccc(-n2nc(C(=O)NC(C)(C)CO)cc2C(C)(C)C)cc1
EC50 [1]: 100000 nM
EC50 [3]: 197 nM
Emax ([4]; filed as agonist): 40%

CCCCCn1nc(C(=O)NC(C)(C)CO)cc1C1CCCCC1
IC50 [5]: Not Active
EC50 [1]: 100000 nM
EC50 [3]: 100000 nM

CC(C)(CO)NC(=O)c1cc(C(C)(C)C)n(-c2ncccn2)n1
EC50 [1]: 100000 nM
EC50 [3]: 100000 nM

CC(C)(CO)NC(=O)c1cc(C(C)(C)C)n(-c2cccnc2)n1
EC50 [1]: 100000 nM
EC50 [3]: 100000 nM

CCCn1nc(C(=O)NC(C)(C)CO)cc1C(C)(C)C
EC50 [1]: 100000 nM
EC50 [3]: 210 nM
Emax ([4]; filed as agonist): 100%

CC(C)(CO)NC(=O)c1cc(C(C)(C)C)n(-c2ccc(Cl)cn2)n1
EC50 [1]: 100000 nM
EC50 [3]: 7310 nM
Emax ([4]; filed as agonist): 50%

CCCCCn1nc(C(C)(C)C)cc1C(=O)NC(C)(C)C
EC50 [1]: 100000 nM
EC50 [3]: 301 nM
Emax ([4]; filed as agonist): 80%

CC(C)(CO)NC(=O)c1cc(C(C)(C)C)n(-c2ccc(C(F)(F)F)cc2)n1
EC50 [1]: 100000 nM
EC50 [3]: 100000 nM

CCCCCn1nc(C(=O)NC23CC4CC(CC(C4)C2)C3)cc1C(C)(C)C
EC50 [1]: 271 nM
Emax ([2]; filed as partial agonist): 69%
EC50 [3]: 194 nM
Emax ([4]; filed as partial agonist): 58%

CCCCCn1nc(C(C)(C)C)cc1C(=O)NC12CC3CC(CC(C3)C1)C2
EC50 [1]: 100000 nM
EC50 [3]: 100000 nM

CCCCCn1nc(C(=O)N[C@@H](C(=O)OC)C(C)C)cc1C(C)(C)C
EC50 [1]: 1.6 nM
Emax ([2]; filed as agonist): 90%
EC50 [3]: 7.4 nM
Emax ([4]; filed as agonist): 90%
half-life at 1 µM [8]: 11.8 min
microsomal CLint at 1 µM [6]: 117 µL/min/mg
CLint scaled at 1 µM [7]: 105 mL/min/kg
remaining at 1 h, 1 µM [9]: 2.9%
